Results: patent publication US20260091020A1, “TREATMENT OF ACUTE CANNABINOID OVERDOSE” (Anebulo Pharmaceuticals, Inc., priority 2022, published 2026)
Entries after “also recorded” stand apart in the source; their conditions may differ.

Assays:
[1] = test system: central nervous system effects of THC; test: Phase 2 randomized, double-blind, placebo-controlled THC challenge study, PD endpoints (10.5 mg THC + 50 or 100 mg Compound 1); assay type: in vivo, human; conditions: for Proportion of subjects reporting feeling high: score of at least 20/100 on VAS feeling high scale
[2] = test system: central nervous system effects of THC; test: THC challenge PD, 21-30 mg THC with 10 or 30 mg Compound 1, simultaneous or 1 hr delay (Examples 4 and 9); assay type: in vivo, human; conditions: for VAS Feeling High log(mm) / Body Sway (mm) / VAS External Perception log(mm) / Heart Rate (supine) (bpm) / VAS Alertness (mm) / Responder Rate (VAS Feeling High) / VAS Internal Perception log(mm): 21 mg THC
Experimental: FIG. 14 depicts a randomized, double-blind, placebo controlled study. Left to right. (a) 14 Adult volunteers ages 18-45 are selected; (b) A single oral dose and 24-hour assessment is conducted for groups (1) 21 mg THC+placebo; and (2) 21 mg THC+30 mg ANEB-001 (c) 7 to 14 day follow up is conducted. Primary endpoints include inhibition of central nervous system effects of THC using (a) visual analog scale “feeling high”; (b) visual analog scale “alertness”; (c) body sway; (d) heart rate. Secondary endpoints include additional efficacy metrics, safety/tolerability, PK, and PK/PD correlations.
FIG. 15 depicts a randomized, double-blind, placebo controlled study. Left to right: (a) 11 Adult volunteers ages 18-45 are selected; (b) A single oral dose and 24-hour assessment is conducted for groups (1) 21 mg THC+placebo; and (2) 21 mg THC+10 mg ANEB-001 (c) 7 to 14 day follow up is conducted. Primary endpoints include inhibition of central nervous system effects of THC using (a) visual analog scale “feeling high”; (b) visual analog scale “alertness”; (c) body sway; (d) heart rate. Secondary endpoints include additional efficacy metrics, safety/tolerability, PK, and PK/PD correlations.
Following the general methods of Example 2, the study design was adjusted such that groups received either (a) THC (21 mg)+placebo or (b) THC (21 mg)+Compound 1 (30 mg) (FIG. 14) or either (a) THC (21 mg)+placebo or (b) THC (21 mg)+Compound 1 (10 mg) (FIG. 15). […] Summary of pharmacokinetics of THC with 30 mg ANEB-001 challenge (FIG. 18A and FIG. 18B), AUC after 5 hours (FIG. 18C), AUC last (FIG. 18D) and Cmax (FIG. 18E).
Following the general methods of Examples 1-3, the study design was adjusted such that Compound 1 was administered 1 hour after administration of THC. Groups received either (a) THC (21 mg)+Compound 1 (10 mg); (b) THC […]+Compound 1 (10 mg); (c) THC (30 mg)+Compound 1 (10 mg); or (d) THC (30 mg)+Compound 1 (10 mg). […] Endpoints were then evaluated as generally described in Example 1, and PK properties were measured as shown for the general methods of Example 2.

[3] = 10.5 mg THC + 50 or 100 mg ANEB-001, p<0.05, unpaired t-test
[4] = 10.5 mg THC + 50 or 100 mg Compound 1 vs THC alone
[5] = 10.5 mg THC + 50 or 100 mg Compound 1 vs THC alone, not statistically significant overall
[6] = 10.5 mg THC + 50 or 100 mg Compound 1 vs THC alone, overall p<0.01

CC(C)(C)NC(=O)N1CC(O[C@H](c2ccc(Cl)cc2)c2ccccc2C(F)(F)F)C1 [Compound 1, (R)—N-(tert-butyl)-3-((4-chlorophenyl)(2-(trifluoromethyl)phenyl)methoxy)azetidine-1-carboxamide]
Proportion of subjects reporting feeling high ([1]; 10.5 mg THC + 50 mg Compound 1): 10%
Responder Rate for Reduction in Feeling High ([1]; 10.5 mg THC + 50 mg or 100 mg Compound 1, p<0.01 vs THC alone): 60%
Proportion of subjects reporting feeling high ([1]; 10.5 mg THC + 100 mg Compound 1): 30%
Maximum change from baseline in body sway [1, 3]: significant reduction in the maximum change from baseline for body sway
Maximum change from baseline in heart rate [1, 3]: significant reduction in the maximum change from baseline for heart rate
VAS calmness [1, 4]: no overall significant difference between the treatment groups
VAS internal perception [1, 4]: no significant differences between treatments
VAS mood [1, 4]: no significant differences between treatments
Heart rate [1, 5]: trend towards normalization of heart rate; also recorded: trend to normalization of heart rate
THC-induced body sway [1, 5]: trend towards reduced body sway; also recorded: trended to improvement
VAS feeling high, time course ([1]; 10.5 mg THC + 50 or 100 mg Compound 1 vs THC alone, overall p<0.0001): highly significant reduction in feeling high; also recorded: Highly significant and sustained improvement
VAS alertness [1, 6]: significantly inhibited the reduction in alertness; also recorded: significant improvement in alertness
VAS external perception [1, 6]: significantly inhibited the change in perception; also recorded: Significant improvement at both dose levels
Body Sway, Alertness and Feeling High vs. placebo ([2]; 21 mg THC + 30 mg ANEB-001): improvements in Body Sway (FIG. 16A), Alertness (FIG. 16B) and Feeling High (FIG. 16C)
VAS Feeling High log(mm) ([2]; 10 mg ANEB-001, 1 hr Delay, p = 0.0380): −0.5545 log(mm)
Body Sway (mm) ([2]; 10 mg ANEB-001, 1 hr Delay, p = 0.0406): −3%
VAS External Perception log(mm) ([2]; 10 mg ANEB-001, 1 hr Delay, p = 0.0530): Modified
Heart Rate (supine) (bpm) ([2]; 10 mg ANEB-001, 1 hr Delay, p = 0.0589): 10.3 bpm
VAS Alertness (mm) ([2]; 10 mg ANEB-001, 1 hr Delay, p = 0.4834): 4.4 mm
Responder Rate (VAS Feeling High) ([2]; 10 mg ANEB-001, 1 hr Delay, p = <0.0001): Reversed
VAS Feeling High log(mm) ([2]; 10 mg ANEB-001, Simultaneous, p = 0.0001): −0.7072 log(mm)
Responder Rate (VAS Feeling High) ([2]; 10 mg ANEB-001, Simultaneous, p = 0.0002): Reversed
VAS External Perception log(mm) ([2]; 10 mg ANEB-001, Simultaneous, p = 0.0037): Reversed
VAS Alertness (mm) ([2]; 10 mg ANEB-001, Simultaneous, p = 0.0047): 9.2 mm
Body Sway (mm) ([2]; 10 mg ANEB-001, Simultaneous, p = 0.0069): −29.3%
VAS Internal Perception log(mm) ([2]; 10 mg ANEB-001, Simultaneous, p = 0.0120): Reversed
Heart Rate (supine) (bpm) ([2]; 10 mg ANEB-001, Simultaneous, p = 0.7264): −1.1 bpm
VAS External Perception log(mm) ([2]; 30 mg ANEB-001, Simultaneous, p = 0.0010): Reversed
VAS Alertness (mm) ([2]; 30 mg ANEB-001, Simultaneous, p = 0.0013): 10.8 mm
VAS Internal Perception log(mm) ([2]; 30 mg ANEB-001, Simultaneous, p = 0.0016): Reversed
Responder Rate (VAS Feeling High) ([2]; 30 mg ANEB-001, Simultaneous, p = 0.0019): Reversed
Body Sway (mm) ([2]; 30 mg ANEB-001, Simultaneous, p = 0.0023): −30.6%
Heart Rate (supine) (bpm) ([2]; 30 mg ANEB-001, Simultaneous, p = 0.4730): −2.2 bpm
VAS Feeling High log(mm) ([2]; 30 mg ANEB-001, Simultaneous, p = <0.0001): −0.7856 log(mm)
VAS External Perception log(mm) ([2]; 10-30 mg ANEB-001, Simultaneous (pooled), p = 0.0004): Reversed
Responder Rate (VAS Feeling High) ([2]; 10-30 mg ANEB-001, Simultaneous (pooled), p = 0.0005): Reversed
VAS Alertness (mm) ([2]; 10-30 mg ANEB-001, Simultaneous (pooled), p = 0.0007): 15.6 mm
VAS Internal Perception log(mm) ([2]; 10-30 mg ANEB-001, Simultaneous (pooled), p = 0.0012): Reversed
Body Sway (mm) ([2]; 10-30 mg ANEB-001, Simultaneous (pooled), p = 0.0013): −30.0%
Heart Rate (supine) (bpm) ([2]; 10-30 mg ANEB-001, Simultaneous (pooled), p = 0.8247): 0.6 bpm
VAS Feeling High log(mm) ([2]; 10-30 mg ANEB-001, Simultaneous (pooled), p = <0.0001): −0.7364 log(mm)
THC-induced body sway ([2]; 21 mg or 30 mg THC, coadministration or Compound 1 after THC): significant reduction in body sway
VAS bad drug effect ([2]; 30 mg THC, 10 mg ANEB-001, 1 hr Delay, p = 0.0003): Reversed
